Experimental data from patent EP0738513A1, “Method for using ergoline compounds to effect physiological and pathological functions at the 5-HT7 receptor” (ELI LILLY AND COMPANY, priority 1995, dated 1996).
Read-outs that look alike come from different tables or passages of the source.

Key:
[1] = system: endothelium denuded canine coronary artery; experiment: agonist-induced contraction in endothelium-denuded canine coronary artery under basal tone; type: cell-based, mongrel dogs; conditions: for contractile response as agonist: no antagonist
Protocol: (§1) Hearts were obtained from mongrel dogs anesthetized with sodium pentobarbital (30mg/kg, i.v.) and placed in oxygenated modified Krebs' solution of the following composition (millimolar): NaCl, 118; KCl, 4.6; CaCl2, 1.6; KH2PO4, 1.2; MgSO4 1.2, glucose, 10; NaHCO3 24.8 (pH 7.4). The left anterior descending and circumflex coronary arteries were dissected from the hearts, cleaned of fat and adhering tissue and cut into rings (approximately 2-3mm outer diameter and 4-5mm in length). The intimal surface of the rings was gently rubbed with a pair of forceps to remove the endothelium. Tissues were then mounted between two stainless steel hooks and placed in 10ml organ chambers constantly exposed to oxygenated modified Krebs' solution (95% O2/5% CO2; pH 7.4; 37°C). Tissues were equilibrated for 1 hour under an initial optimal passive force of 4g determined previously from length-tension experiments. The buffer was replaced every 15 minutes during equilibration. Isometric force was measured with Statham UC3 force transducers connected to a Beckman dynograph (R611). After lhr equilibration, tissues were depolarized twice with 50mM KCl for 30min with a 20min washing period between. The integrity of the endothelium was examined with acetylcholine (1µM), bradykinin (100nM), or the ionophore A23187 (1µM). Rings that relaxed to these agents were not used in this study.
(§2) Tissues prepared as described in Example 1 were precontracted with PGF2α (10µM) which produced a tonic contraction that remained at or above 92.8±2.1% (n=14) of the original maximum force throughout the experiment. Cumulative concentration-response curves to 5-HT were generated in tissues incubated with either vehicle or antagonist for 1hr. In some experiments contraction was measured in tissues under basal tone upcn the cumulative addition of 5-HT. These tissues were treated with prazosin (1µM) to block any potential α adrenoceptor activation and in the absence or presence of antagonist.
(§3) All results are expressed as mean ± S.E. where "n" represents the number of rings examined. No more than two rings were used from each animal for each compound studied. The relaxation data is expressed as percent relaxation of the contraction produced by PGF2α . The contraction data is expressed as percent of a maximal KCl (50mM) contraction. The EC50 was the concentration of the agonist producing half-maximal response and was determined by least squares linear regression analysis of the linear portion of the agonist concentration-response curve and expressed as -log EC50 (pEC50).

[2] = system: 5-HT7 receptor in the dog coronary artery; experiment: antagonism of 5-HT-induced relaxation in endothelium-denuded canine coronary artery rings precontracted with PGF2α; type: cell-based, mongrel dogs; conditions: for relaxant activity as agonist in canine coronary artery: agonist alone; for pA2 (-log KB): antagonist dissociation constant against 5-HT-induced relaxation, Schild analysis for compounds II and IV
Protocol: as §1, §2, §3
Apparent antagonist dissociation constants (KB) were determined for each antagonist according to the following equation: KB =((B))/((dose ratio -1)) [formula] where (B) is the concentration of the antagonist and dose ratio is the EC50 of the agonist in the presence of the antagonist divided by the EC50 of the agonist in vehicle treated tissues. […] Significant differences between vehicle and antagonist treated tissues were determined with Student's t-test. The alpha value was set a priori at 0.05.
The data was also analyzed in accord with the procedure of Arunlakshana and Schild (1959). The dose ratio was determined at various concentrations of antagonist compound II or compound IV. If blockade is competitive under equilibrium conditions a plot of the logarithm (dose ratio - 1) against the negative logarithm of the molar concentration of antagonist should yield a straight line whose slope is not different from unity and whose intercept on the abscissa is the pA2, which is generally considered to be equivalent to -log KB.

[3] = molecular target: human 5-HT7 receptor (Homo sapiens, UniProt P34969); experiment: receptor binding studies at the human 5-HT7 receptor
From the text: The general chemical structure for three particularly useful compounds of the invention (compounds III - V) are shown below: [drawing 3]

[4] = bioavailability after oral administration in rats; type: in vivo; conditions: comparative statement
[5] = molecular target: 5-HT7 receptor (Rattus norvegicus, UniProt P32305); conditions: receptor expressed in mammalian cells; Shen at 18200; cited from earlier work
[6] = rings precontracted with PGF2α (10µM)
[7] = antagonist 1µM, vessels under basal tone
[8] = antagonist 0.3-10µM, rings precontracted with PGF2α (10µM)

human 5-HT7 receptor, sequence (P34969 whole entry): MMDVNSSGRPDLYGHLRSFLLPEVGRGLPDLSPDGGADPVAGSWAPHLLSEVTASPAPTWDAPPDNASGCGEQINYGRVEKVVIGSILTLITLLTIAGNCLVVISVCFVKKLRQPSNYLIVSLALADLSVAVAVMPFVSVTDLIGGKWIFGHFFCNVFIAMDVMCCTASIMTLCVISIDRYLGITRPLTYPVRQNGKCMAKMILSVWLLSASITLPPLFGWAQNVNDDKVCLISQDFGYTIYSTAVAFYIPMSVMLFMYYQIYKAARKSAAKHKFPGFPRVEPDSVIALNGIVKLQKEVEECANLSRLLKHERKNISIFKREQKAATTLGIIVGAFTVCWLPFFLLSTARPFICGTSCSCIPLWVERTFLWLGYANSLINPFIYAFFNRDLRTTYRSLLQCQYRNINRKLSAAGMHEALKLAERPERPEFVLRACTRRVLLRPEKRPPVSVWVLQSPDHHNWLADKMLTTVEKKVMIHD
5-HT7 receptor, sequence (P32305 whole entry): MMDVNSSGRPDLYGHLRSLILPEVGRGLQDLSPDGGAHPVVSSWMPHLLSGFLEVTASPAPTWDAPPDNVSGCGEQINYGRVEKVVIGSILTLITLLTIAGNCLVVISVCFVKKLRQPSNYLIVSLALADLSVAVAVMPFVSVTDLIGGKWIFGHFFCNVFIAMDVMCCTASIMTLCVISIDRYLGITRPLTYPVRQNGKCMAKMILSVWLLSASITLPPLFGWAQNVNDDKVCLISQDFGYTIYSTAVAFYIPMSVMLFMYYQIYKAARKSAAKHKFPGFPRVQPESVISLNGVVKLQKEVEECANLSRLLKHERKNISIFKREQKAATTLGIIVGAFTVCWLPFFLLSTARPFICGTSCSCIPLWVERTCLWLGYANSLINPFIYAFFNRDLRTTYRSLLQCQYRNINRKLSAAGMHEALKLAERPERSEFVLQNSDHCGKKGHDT

SMILES: COc1ccc2[nH]cc(CCN)c2c1 [5-MeOT, 5-methoxytryptamine]
- contractile response as agonist ([1]; vessels under basal tone): biphasic contractile response

SMILES: CNS(=O)(=O)Cc1ccc2[nH]cc(CCN(C)C)c2c1 [sumatriptan]
- relaxant activity as agonist in canine coronary artery [2]: lacking relaxant activity

SMILES: CC(C)n1cc2c3c(cccc31)C1CC(C(=O)NC3CCCC3O)CN(C)C1C2 (stereo not shown) [COMPOUND IV]
- Kd ([3]; read-out: -log KD (converted)): 12.6 nM
- Kd ([3]; read-out: KD): 13.3 ± 1.2 nM
- effect on 5-HT-induced relaxation ([2]; antagonist 10-100nM): blocked 5-HT-induced relaxation
- pA2 (-log KB) [2, 6]: 8.3
- effect on sumatriptan-induced contraction ([1]; antagonist 1µM, basal tone): did not significantly affect
- effect on contractile response produced by 5-HT and 5-MeOT [1, 7]: not affecting
- effect on relaxant phase of the biphasic response to 5-HT and 5-MeOT [1, 7]: significantly attenuated
- bioavailability [4]: greater bioavailability than the ester compounds II and V

SMILES: NCCc1c[nH]c2ccc(C(N)=O)cc12 [5-CT, 5-carboxamidotryptamine]
- relaxant activity as agonist in canine coronary artery [2]: potent relaxant agonist
- contractile response as agonist in the presence of compound IV ([1]; basal tone, compound IV (1µm) present to block relaxation): concentration-dependently contracted
- contractile response as agonist ([1]; vessels under basal tone): did not significantly contract

SMILES: NCCc1c[nH]c2ccc(O)cc12 [5-HT, 5-hydroxytryptamine]
- contractile response as agonist ([1]; vessels under basal tone): biphasic contractile response

SMILES: CC(O)C(C)OC(=O)C1CC2c3cccc4c3c(cn4C(C)C)CC2N(C)C1 (stereo not shown) [COMPOUND II]
- Kd ([3]; read-out: -log KD (converted)): 631 nM
- Kd ([3]; read-out: KD): 609 nM
- effect on concentration-response curve to 5-HT (relaxation) [2, 8]: shifted the concentration-response curve to 5-HT significantly to the right
- effect on maximum relaxant response to 5-HT [2, 8]: did not alter
- pA2 (-log KB) [2, 6]: 6.5

SMILES: CN(C)CCC=C1c2ccccc2CCc2ccccc21 [amitriptyline]
- affinity of the 5-HT7 receptor to the drug [5]: high affinity

SMILES: CC(C)n1cc2c3c(cccc31)C1CC(C(=O)NC3CCCCC3)CN(C)C1C2 (stereo not shown) [COMPOUND III]
- Kd ([3]; read-out: -log KD (converted)): 25.1 nM
- Kd ([3]; read-out: KD): 27.1 ± 1.5 nM
- effect on 5-HT-induced relaxation ([2]; antagonist 1µM): blocked 5-HT-induced relaxation
- pA2 (-log KB) [2, 6]: 6.7
- bioavailability [4]: greater bioavailability than the ester compounds II and V
